Data reported in patent publication US11046945B2, “Labeled glutaminase proteins, isolated glutaminase protein mutants, methods of use, and kit” (CORNELL UNIVERSITY, priority 2013, dated 2021).
Substitutions are numbered along the chain they refer to.

Tests used:
488-D391K-GAC = molecular target: T1, 488-D391K-GAC (Mus musculus, UniProt D3Z7P3, D391K); experiment: Real-time binding read-out by fluorescence quenching, dimer mutant; conditions: 20 nM 488-labeled protein, 968 titration
T1 construct: plasmid (residues 72-603 for GAC, 72-674 for KGA); His-tag with thrombin cleavage site (N, cleaved yes); made in house; host or cells: pET23a vector
T1 sequence (D3Z7P3 72-603 isoform D3Z7P3-2 D391K): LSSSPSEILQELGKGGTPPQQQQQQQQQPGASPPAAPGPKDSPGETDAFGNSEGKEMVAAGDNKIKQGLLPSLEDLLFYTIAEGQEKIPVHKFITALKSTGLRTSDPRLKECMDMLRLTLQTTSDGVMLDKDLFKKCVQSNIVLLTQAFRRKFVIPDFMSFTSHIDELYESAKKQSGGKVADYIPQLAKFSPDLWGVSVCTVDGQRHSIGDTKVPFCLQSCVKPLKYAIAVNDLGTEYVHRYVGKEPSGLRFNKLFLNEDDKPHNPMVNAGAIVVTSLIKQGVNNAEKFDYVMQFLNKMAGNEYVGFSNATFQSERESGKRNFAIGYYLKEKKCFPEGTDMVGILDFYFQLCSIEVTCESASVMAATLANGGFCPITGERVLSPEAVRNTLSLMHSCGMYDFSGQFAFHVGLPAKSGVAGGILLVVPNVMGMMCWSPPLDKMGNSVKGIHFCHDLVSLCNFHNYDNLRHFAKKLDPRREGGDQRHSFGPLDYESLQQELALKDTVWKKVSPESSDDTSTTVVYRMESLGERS
Procedure: (§1) Real-time fluorescence monitoring of 488-GAC fluorescence and NADH fluorescence was performed on a Varian Carry Eclipse Fluorometer, whereas small molecule inhibition and binding titrations were performed in a 96-well format using Grenier non-binding 96-well plates in a Tecan Saphire absorbance and fluorescence plate reader. Samples for monitoring real time binding of 968 to 488-GAC were prepared by adding 10 […] (490 nm excitation/520 nm emission). Similarly, this method was replicated for monitoring real time binding of 968 to KGA and mutant forms of GAC, namely 488-D391K-GAC and 488-K316E-D391K-R459E-GAC. Titrations of 968 with mutant forms of GAC were done in triplicate and quantified by the following equation
(§2) [formula] where F is the normalized fluorescence at given drug concentration (i.e., F/F0), and Fsat is the normalized fluorescence at saturating concentrations of drug, as shown in FIG. 7A. […] 10 nM WT GAC was added and allowed to equilibrate 2 minutes before beginning to monitor fluorescence of 488-GAC (490 nm excitation, 520 nm emission) and NADH fluorescence (340 nm excitation, 490 nm emission). […] The activity of GAC was indirectly measured by the NADH produced by the added glutamate dehydrogenase, which converts the product of glutaminase activity, glutamate, to α-ketoglutarate and ammonia through reducing NAD^+ to NADH. […]

Dbl-transformed MEFs = conditions: adapted from Wang et al. 2010; cited from earlier work
[1] = molecular target: T2, 488-K316E-D391K-R459E-GAC (Mus musculus, UniProt D3Z7P3, D391K/K316E/R459E); experiment: Real-time binding read-out by fluorescence quenching, monomer mutant; conditions: 20 nM 488-labeled protein, 968 titration
T2 construct: plasmid (residues 72-603 for GAC, 72-674 for KGA); His-tag with thrombin cleavage site (N, cleaved yes); made in house; host or cells: pET23a vector
T2 sequence (D3Z7P3 72-603 isoform D3Z7P3-2 K316E/D391K/R459E): T1 sequence (D3Z7P3 72-603 isoform D3Z7P3-2 D391K) with K245E, R388E
Procedure: as §1, with “10 μL” for “10”
as §2

binding to dimeric GAC (D391K) mutant (488-D391K-GAC): capable of binding
binding to monomeric GAC (K316E-D391K-R459E) mutant, relative affinity [1]: highest affinity
SMILES: CN(C)c1ccc(C2Nc3ccc4ccccc4c3C3=C2C(=O)CC(C)(C)C3)cc1Br (stereo not drawn) [compound 968]
inhibition of the ability of Dbl-transformed MEFs to form foci (Dbl-transformed MEFs): dose dependent
